Like-named read-outs stand apart in the source and are kept apart here.
Columns and labels:
[1] = system: HePG2 hepatocarcinoma cells; assay type: cell-based; conditions: human
Procedure: The cells were incubated for 2 h (37° C. and 5% CO2) and allowed to settle and attach. Compounds of interest or DMSO were diluted in DMEM and added at final compound concentrations of 1 μM, 10 μM, and 100 μM. Cells were incubated for 4 hours and 24 hours after which the media was discarded. Cells were lysed by adding 30 μL of passive lysis buffer (Promega) and shaken at RT for 15 min. Cell viability was determined by quantifying the ATP present in each well by adding 10 μL of CellTiter-Glo (Promega) per well and measuring the light output Spectramax L luminometer (Molecular Devices) with an integration time of one second per well. Data was normalized to 100% viability for cells receiving only DMSO without any concurrent compound.

P38β = P38β (Homo sapiens, UniProt Q15759); assay: Kinome profiling P38β; assay type: biochemical; conditions: read-out: Inhibitory activity P38β; for inhibition at 0.1 µM: 100 nM
P38β, sequence (Q15759 whole entry): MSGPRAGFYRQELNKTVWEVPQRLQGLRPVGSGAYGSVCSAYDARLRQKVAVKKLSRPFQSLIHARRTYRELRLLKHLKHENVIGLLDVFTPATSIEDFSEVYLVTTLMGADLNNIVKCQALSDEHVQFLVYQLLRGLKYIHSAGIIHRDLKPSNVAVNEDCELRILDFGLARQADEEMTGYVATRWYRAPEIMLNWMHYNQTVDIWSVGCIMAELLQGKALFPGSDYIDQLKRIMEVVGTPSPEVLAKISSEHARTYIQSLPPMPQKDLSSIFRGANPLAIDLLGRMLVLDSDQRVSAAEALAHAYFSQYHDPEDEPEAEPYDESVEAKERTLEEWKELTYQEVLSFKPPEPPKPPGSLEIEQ
Procedure: (§1) . The kinome-wide selectivity was determined following the methods previously reported by Mohedas et al., ACS Chem Biol 2013, 8, 1291-1302 and Sanvitale et al., PLoS One 2013, 8, e62721.

CHEK2 = CHEK2 (Homo sapiens, UniProt O96017); assay: Kinome profiling CHEK2; assay type: biochemical; conditions: read-out: Inhibitory activity CHEK2; for inhibition at 0.1 µM: 100 nM
CHEK2, sequence (O96017 whole entry): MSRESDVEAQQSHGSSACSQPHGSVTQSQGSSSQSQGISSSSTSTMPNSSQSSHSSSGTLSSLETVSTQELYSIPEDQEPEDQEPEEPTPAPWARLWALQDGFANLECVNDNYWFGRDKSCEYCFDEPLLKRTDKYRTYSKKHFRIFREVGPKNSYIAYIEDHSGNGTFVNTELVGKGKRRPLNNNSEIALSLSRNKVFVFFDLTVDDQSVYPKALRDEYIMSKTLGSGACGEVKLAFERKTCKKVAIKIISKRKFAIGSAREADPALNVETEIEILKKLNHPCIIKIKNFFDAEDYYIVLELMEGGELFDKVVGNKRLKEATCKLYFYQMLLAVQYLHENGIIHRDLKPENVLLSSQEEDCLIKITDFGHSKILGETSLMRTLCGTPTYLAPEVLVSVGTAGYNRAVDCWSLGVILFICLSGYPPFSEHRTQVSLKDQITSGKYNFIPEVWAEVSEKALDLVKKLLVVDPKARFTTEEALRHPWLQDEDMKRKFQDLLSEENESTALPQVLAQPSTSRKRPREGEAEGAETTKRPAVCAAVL
Procedure: as §1

TSSK1 = target: T1, TSSK1 (Homo sapiens, UniProt Q9BXA7); assay: Kinome profiling TSSK1; assay type: biochemical; conditions: read-out: Inhibitory activity TSSK1; for inhibition at 0.1 µM: 100 nM
T1 sequence (Q9BXA7 1-367): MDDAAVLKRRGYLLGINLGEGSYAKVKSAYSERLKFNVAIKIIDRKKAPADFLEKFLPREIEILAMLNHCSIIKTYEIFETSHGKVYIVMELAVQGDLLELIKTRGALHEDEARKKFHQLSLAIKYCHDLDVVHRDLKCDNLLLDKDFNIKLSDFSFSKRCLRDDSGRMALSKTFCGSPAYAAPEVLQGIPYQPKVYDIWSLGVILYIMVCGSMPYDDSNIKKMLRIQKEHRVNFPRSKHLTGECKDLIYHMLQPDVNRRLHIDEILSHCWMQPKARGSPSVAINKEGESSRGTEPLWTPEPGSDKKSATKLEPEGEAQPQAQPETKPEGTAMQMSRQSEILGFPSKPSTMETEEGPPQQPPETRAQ
Procedure: as §1

MST2 = target: T2, MST2 (Homo sapiens, UniProt Q13188); assay: Kinome profiling MST2; assay type: biochemical; conditions: read-out: Inhibitory activity MST2; for inhibition at 0.1 µM: 100 nM
T2 sequence (Q13188 1-491): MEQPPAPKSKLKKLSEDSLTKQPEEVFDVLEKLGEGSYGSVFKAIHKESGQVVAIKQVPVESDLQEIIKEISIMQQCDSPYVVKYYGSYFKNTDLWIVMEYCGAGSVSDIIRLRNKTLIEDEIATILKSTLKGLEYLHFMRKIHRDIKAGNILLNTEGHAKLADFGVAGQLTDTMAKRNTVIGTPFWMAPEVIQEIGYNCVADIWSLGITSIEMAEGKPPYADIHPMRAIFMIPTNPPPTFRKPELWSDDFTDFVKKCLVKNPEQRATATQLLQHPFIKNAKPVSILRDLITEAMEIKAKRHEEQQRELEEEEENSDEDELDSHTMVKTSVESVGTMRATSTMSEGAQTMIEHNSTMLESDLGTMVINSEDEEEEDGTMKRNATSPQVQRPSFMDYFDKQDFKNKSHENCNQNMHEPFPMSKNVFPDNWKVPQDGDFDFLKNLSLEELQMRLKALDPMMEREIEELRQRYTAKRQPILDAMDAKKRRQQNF
Procedure: as §1

FLT-4 = FLT-4 (Homo sapiens, UniProt P35916); assay: Kinome profiling FLT-4; assay type: biochemical; conditions: read-out: Inhibitory activity FLT-4; for inhibition at 0.1 µM: 100 nM
FLT-4, sequence (P35916 25-1363): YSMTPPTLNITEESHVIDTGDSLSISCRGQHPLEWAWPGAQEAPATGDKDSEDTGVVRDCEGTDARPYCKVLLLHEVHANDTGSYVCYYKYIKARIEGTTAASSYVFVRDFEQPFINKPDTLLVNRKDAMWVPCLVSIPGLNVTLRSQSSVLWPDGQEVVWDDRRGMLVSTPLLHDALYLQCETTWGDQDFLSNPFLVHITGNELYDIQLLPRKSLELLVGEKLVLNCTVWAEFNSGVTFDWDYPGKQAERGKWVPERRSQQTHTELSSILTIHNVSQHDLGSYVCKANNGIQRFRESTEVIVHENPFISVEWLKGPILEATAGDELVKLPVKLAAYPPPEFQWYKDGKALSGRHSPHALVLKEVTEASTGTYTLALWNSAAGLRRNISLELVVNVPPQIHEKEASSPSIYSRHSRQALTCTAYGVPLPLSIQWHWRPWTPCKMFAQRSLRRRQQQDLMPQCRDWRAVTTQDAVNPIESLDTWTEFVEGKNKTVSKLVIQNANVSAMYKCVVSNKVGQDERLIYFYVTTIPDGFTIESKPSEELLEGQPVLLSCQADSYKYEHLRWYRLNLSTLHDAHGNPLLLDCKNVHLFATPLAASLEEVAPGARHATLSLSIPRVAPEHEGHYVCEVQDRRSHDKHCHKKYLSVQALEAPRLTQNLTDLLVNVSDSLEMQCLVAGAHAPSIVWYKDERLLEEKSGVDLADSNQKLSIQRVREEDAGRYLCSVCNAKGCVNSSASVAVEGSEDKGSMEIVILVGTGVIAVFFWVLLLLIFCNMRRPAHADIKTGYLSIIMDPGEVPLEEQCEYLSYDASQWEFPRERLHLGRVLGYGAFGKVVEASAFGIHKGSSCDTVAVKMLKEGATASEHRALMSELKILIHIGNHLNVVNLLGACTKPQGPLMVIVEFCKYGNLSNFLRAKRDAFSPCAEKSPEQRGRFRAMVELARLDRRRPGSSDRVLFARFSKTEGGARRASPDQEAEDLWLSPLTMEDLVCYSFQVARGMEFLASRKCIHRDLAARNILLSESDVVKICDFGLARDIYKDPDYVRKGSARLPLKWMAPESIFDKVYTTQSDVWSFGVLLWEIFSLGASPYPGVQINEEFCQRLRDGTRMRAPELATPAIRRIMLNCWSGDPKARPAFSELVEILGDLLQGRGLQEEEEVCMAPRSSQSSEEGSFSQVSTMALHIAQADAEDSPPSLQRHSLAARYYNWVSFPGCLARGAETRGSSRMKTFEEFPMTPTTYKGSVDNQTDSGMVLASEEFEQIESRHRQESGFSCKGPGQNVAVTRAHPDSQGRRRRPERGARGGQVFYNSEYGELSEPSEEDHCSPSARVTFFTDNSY
Procedure: as §1

CLK3 = CLK3 (Homo sapiens, UniProt P49761); assay: Kinome profiling CLK3; assay type: biochemical; conditions: read-out: Inhibitory activity CLK3; for inhibition at 0.1 µM: 100 nM
CLK3, sequence (P49761 whole entry): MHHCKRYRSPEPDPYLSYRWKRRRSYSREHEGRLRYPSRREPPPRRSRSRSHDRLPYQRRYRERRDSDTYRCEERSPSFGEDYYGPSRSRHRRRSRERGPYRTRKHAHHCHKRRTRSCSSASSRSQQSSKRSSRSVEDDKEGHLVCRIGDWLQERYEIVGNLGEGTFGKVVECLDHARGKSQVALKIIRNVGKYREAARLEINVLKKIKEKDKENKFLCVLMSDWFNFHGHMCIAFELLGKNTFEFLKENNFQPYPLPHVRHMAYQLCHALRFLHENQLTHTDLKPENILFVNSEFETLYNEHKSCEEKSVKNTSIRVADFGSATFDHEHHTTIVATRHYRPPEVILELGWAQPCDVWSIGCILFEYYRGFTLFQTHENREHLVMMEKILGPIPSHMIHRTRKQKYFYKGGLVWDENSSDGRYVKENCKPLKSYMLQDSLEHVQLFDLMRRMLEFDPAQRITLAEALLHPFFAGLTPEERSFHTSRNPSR
Procedure: as §1

CAMK1δ = CAMK1δ (Homo sapiens, UniProt Q8IU85); assay: Kinome profiling CAMK1δ; assay type: biochemical; conditions: read-out: Inhibitory activity CAMK1δ; for inhibition at 0.1 µM: 100 nM
CAMK1δ, sequence (Q8IU85 whole entry): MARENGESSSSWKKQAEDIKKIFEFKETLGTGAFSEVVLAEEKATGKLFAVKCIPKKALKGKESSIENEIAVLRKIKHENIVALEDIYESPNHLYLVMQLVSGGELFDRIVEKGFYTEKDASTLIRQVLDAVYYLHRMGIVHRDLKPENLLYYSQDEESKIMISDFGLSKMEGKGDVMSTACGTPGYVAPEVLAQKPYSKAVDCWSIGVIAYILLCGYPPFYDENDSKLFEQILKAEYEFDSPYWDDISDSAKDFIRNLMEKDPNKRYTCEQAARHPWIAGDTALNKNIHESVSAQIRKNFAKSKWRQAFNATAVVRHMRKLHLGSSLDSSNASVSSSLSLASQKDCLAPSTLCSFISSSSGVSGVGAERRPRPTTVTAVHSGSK
Procedure: as §1

SPHK1 = SPHK1 (Homo sapiens, UniProt Q9NYA1); assay: Kinome profiling SPHK1; assay type: biochemical; conditions: read-out: Inhibitory activity SPHK1; for inhibition at 0.1 µM: 100 nM
SPHK1, sequence (Q9NYA1 whole entry): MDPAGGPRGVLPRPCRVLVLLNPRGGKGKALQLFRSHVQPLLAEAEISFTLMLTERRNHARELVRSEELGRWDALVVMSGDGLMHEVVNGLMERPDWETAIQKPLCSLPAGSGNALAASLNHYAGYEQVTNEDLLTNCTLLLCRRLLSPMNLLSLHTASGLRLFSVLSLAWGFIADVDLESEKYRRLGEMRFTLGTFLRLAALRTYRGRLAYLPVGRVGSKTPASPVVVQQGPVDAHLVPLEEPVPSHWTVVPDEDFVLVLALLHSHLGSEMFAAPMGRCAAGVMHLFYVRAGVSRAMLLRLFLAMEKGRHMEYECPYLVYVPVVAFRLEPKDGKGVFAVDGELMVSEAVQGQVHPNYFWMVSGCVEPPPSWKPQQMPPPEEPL
Procedure: as §1

| SMILES | Cell viability ([1]; 4 h, 1 μM) | Cell viability ([1]; 4 h, 10 μM) | Cell viability ([1]; 4 h, 100 μM) | Cell viability ([1]; 24 h, 1 μM) | Cell viability ([1]; 24 h, 10 μM) | Cell viability ([1]; 24 h, 100 μM) | inhibition at 0.1 µM (P38β) | inhibition at 1 µM (P38β) | inhibition at 0.1 µM (CHEK2) | inhibition at 1 µM (CHEK2) | inhibition at 0.1 µM (TSSK1) | inhibition at 1 µM (TSSK1) | inhibition at 0.1 µM (MST2) | inhibition at 1 µM (MST2) | inhibition at 0.1 µM (FLT-4) | inhibition at 1 µM (FLT-4) | inhibition at 0.1 µM (CLK3) | inhibition at 1 µM (CLK3) | inhibition at 0.1 µM (CAMK1δ) | inhibition at 1 µM (CAMK1δ) | other results |
| --- | --- | --- | --- | --- | --- | --- | --- | --- | --- | --- | --- | --- | --- | --- | --- | --- | --- | --- | --- | --- | --- |
| COc1cc(-c2cc(-c3ccc(N4CCNCC4)cc3)cnc2N)cc(OC)c1OC [Compound 15, 5-(4-(piperazin-1-yl)phenyl)-3-(3,4,5-trimethoxyphenyl)pyridin-2-amine] | 95% | 103% | 103% | 96% | 96% | 23% | 10% | 44% | 2% | 7% | 1% | 5% | 3% | 4% | 1% | 4% | 0% | 0% | 0% | -1% | inhibition at 0.1 µM (SPHK1): 2%; inhibition at 1 µM (SPHK1): -12% |
| COc1cc(-c2cc(-c3ccc(N4CCNCC4)cc3)cnc2C)cc(OC)c1OC [Compound 10, 1-(4-(6-methyl-5-(3,4,5-trimethoxyphenyl)pyridin-3-yl)phenyl)piperazine] | 91% | 100% | 88% | 92% | 78% | 77% | 1% | 11% | 1% | 8% | 2% | 2% | 0% | 1% | 3% | 9% | 9% | 12% | 1% | 2% | inhibition at 0.1 µM (SPHK1): 0%; inhibition at 1 µM (SPHK1): 0% |

From patent US20170190705A1, “Compositions and Methods for Inhibiting BMP” (THE BRIGHAM AND WOMAN'S HOSPITAL, INC., priority 2014, published 2017)
